One experiment deals with NADPH oxidase 1 (Homo sapiens, UniProt Q9Y5S8). Format: functional, cell-based.
Experiment [1] addresses Glyceraldehyde-3-phosphate dehydrogenase (Homo sapiens, UniProt P04406).
Experiment [2] addresses T1, Bcl-2-related protein A1 (Mus musculus, UniProt Q07440). The experiment can be described thus: small-molecule antagonists of Bfl-1/BH3 interaction – biochemical, TR-FRET, mouse Bfl-1, confirmation (AID 621).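 Also: TR-FRET binding of GST-Bfl-1 to FITC-labelled Bid peptide via terbium antibody.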
In experiment [3] the target is T1, Bcl-2-related protein A1. The experiment can be described thus: Bfl-1 binding inhibitors, SAR follow-up, biochemical, fluorescence polarization (AID 1070). (In general: Polarisation of emitted light reports the rotation of a fluorescent probe.)
Experiment [4] is described as follows: Luminescence Cell-Based Dose Confirmation HTS to Identify Inhibitors of Polyadenylation. Format: functional.
For the next experiment, the target named is T2, Estrogen receptor (Homo sapiens, UniProt P03372).
T2 sequence (P03372 whole entry): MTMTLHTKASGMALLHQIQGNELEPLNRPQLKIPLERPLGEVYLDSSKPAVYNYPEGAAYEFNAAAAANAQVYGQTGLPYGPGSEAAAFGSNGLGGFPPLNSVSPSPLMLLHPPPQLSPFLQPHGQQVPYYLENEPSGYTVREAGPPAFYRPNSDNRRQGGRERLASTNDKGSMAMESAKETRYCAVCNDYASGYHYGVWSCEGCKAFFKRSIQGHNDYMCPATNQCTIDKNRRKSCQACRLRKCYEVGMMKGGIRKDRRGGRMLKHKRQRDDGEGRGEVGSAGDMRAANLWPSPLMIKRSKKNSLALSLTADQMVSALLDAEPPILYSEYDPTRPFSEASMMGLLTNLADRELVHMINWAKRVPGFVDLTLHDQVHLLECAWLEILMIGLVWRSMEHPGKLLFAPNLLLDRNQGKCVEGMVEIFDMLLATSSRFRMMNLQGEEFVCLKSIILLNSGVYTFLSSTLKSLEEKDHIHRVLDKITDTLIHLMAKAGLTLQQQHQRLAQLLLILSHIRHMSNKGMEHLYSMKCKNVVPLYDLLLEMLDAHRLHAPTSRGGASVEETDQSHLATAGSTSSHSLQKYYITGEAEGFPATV

Experiment [5] addresses T3, Estrogen receptor beta (Homo sapiens, UniProt Q92731). The experiment can be described thus: blockers of SRC-3 recruitment to ERβ – biochemical, ELISA, streptavidin-HRP readout, orthogonal assay, confirmation (AID 1060). (In general: ELISA stands for enzyme-linked immunosorbent assay.)
Experiment [6] has as its target T3, Estrogen receptor beta.
For a further experiment, the target named is Vasopressin V1a receptor (Homo sapiens, UniProt P37288). The experiment can be described thus: Fluorescence-based cell-based high throughput dose response screening assay for agonists of the vasopressin 1 receptor (V1R). The class given is functional.
Vasopressin V1a receptor, sequence (P37288 whole entry): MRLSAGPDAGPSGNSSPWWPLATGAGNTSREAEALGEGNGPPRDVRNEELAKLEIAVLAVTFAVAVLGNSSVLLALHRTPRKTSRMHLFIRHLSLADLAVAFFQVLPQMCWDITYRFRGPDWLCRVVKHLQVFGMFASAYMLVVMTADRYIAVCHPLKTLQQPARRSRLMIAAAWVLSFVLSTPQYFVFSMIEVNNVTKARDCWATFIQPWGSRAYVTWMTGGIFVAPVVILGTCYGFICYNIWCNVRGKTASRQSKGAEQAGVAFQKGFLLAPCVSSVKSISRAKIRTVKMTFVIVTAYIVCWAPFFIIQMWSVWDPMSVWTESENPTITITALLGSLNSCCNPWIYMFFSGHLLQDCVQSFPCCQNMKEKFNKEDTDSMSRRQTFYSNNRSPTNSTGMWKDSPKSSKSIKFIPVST
The target of another experiment is Oxytocin receptor (Homo sapiens, UniProt P30559). The experiment can be described thus: Counterscreen for vasopressin 1 receptor (V1R) agonists: Fluorescence-based cell-based high throughput dose response assay for agonists of the Oxytocin Receptor (OXTR). [Related pubchem assays: 2435 (Primary screen (OXTR agonists in singlicate)), 434964 (Confirmation screen (V1R agonists in triplicate)), 434969 (Counterscreen (OXTR agonists in …. Format: functional. For orientation: The purpose of a counterscreen is to sort out artefacts and off-target activity.
Oxytocin receptor, sequence (P30559 whole entry): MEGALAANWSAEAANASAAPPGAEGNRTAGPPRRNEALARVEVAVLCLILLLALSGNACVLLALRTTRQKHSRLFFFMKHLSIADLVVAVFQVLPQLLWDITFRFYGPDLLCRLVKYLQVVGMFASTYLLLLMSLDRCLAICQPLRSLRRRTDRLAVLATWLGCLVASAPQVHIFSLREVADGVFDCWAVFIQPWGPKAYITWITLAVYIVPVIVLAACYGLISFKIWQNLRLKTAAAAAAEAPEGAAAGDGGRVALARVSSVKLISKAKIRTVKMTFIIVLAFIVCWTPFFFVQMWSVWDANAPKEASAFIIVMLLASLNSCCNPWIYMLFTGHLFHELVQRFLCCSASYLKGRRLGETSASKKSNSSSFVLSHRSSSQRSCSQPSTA

Molecules are shown by their SMILES. Active and inactive are the calls of the source.

T3 sequence (Q92731 whole entry): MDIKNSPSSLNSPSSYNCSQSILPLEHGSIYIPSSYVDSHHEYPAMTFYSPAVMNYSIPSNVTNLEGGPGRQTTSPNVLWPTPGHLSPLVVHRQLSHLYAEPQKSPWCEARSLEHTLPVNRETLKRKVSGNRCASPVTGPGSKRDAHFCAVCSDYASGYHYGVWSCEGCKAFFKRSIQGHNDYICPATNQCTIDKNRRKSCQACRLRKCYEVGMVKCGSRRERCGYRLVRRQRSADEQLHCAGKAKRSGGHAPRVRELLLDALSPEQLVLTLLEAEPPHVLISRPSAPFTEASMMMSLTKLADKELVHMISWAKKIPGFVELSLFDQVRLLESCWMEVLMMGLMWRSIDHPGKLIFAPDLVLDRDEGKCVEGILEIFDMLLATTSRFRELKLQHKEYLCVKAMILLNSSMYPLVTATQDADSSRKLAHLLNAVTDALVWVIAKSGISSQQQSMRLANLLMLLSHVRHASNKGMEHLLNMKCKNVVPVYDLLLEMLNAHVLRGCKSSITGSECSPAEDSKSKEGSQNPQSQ
T1 sequence (Q07440 whole entry): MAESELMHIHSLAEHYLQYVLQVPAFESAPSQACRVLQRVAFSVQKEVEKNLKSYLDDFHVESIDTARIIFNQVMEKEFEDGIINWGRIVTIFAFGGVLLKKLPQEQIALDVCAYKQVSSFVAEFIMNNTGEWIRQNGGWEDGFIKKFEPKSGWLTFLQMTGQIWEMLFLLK
Glyceraldehyde-3-phosphate dehydrogenase, sequence (P04406 whole entry): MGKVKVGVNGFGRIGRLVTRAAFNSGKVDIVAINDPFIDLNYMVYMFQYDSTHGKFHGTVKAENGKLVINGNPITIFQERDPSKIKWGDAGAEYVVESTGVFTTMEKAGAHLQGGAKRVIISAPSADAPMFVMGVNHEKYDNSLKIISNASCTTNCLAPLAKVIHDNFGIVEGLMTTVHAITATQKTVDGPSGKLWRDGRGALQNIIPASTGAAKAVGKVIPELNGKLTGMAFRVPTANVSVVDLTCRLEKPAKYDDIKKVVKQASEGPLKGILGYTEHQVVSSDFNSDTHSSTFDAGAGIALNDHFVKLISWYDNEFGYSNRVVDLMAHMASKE
NADPH oxidase 1, sequence (Q9Y5S8 whole entry): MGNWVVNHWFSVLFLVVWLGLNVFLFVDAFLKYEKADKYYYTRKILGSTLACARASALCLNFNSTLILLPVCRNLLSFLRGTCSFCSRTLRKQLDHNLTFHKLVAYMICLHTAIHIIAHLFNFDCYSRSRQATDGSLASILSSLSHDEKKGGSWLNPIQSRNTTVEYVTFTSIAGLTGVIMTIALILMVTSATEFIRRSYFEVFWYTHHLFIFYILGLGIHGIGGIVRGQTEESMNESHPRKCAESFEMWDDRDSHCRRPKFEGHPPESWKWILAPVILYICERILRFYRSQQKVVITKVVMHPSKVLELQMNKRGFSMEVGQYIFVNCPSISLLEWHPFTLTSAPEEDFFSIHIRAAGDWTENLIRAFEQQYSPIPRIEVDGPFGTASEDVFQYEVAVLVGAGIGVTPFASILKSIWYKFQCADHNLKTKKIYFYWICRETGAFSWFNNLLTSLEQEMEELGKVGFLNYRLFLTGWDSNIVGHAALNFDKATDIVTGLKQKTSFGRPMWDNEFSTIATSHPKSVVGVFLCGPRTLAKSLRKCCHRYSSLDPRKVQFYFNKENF

Consider `COc1ccc(/C=N/Nc2c(Cl)cncc2Cl)c(OC)c1OC`, for which the half-maximal inhibitory concentration (IC50) (in general, the concentration at which inhibition is half-maximal) against NADPH oxidase 1 is recorded as > 17 µM (not active).
As for `COc1cccc(-c2cc(C(F)(F)F)nc(S(C)(=O)=O)n2)c1`, the half-maximal inhibitory concentration (IC50) in [1] is > 100 µM (not active); on Bcl-2-related protein A1 [2], 2.24 µM (active); at Bcl-2-related protein A1 [3], 6.78 µM (active).
As for `COc1ccccc1N1CCN(C(=O)CCNS(=O)(=O)c2ccc(Br)s2)CC1`, the half-maximal effective concentration (EC50) (as a rule, the concentration that produces a half-maximal response) in experiment [4] is listed as > 120 µM (not active).
For `Cc1ccc(OCc2ccoc2C(=O)O)cc1C`, the figures for the IC50 on Estrogen receptor, at Estrogen receptor beta [5] and on Estrogen receptor beta [6] were 25.4 µM (active), < 0.023 µM (not active) and 5.86 µM (active), respectively.
Regarding `CCN(CC)c1ccc2cc(C(N)=O)/c(=N\NC(=O)c3ccncc3)oc2c1`, the EC50 at Vasopressin V1a receptor is 18.6 µM (not active); on Oxytocin receptor, 21.8 µM (not active).

(Values after ChEMBL document CHEMBL1201862, “PubChem BioAssay data set” (2004).)
